Earlier results as cited in patent US20090202444A1 (priority 2009, published 2009).

Test system: bacteria

[Ag+] [silver ion]
silver ion concentration for inhibition of bacterial growth: below 5 ppm
